Measured values as given in patent US4992450A, “Piperidine opioid antagonists” (Eli Lilly and Company, priority 1989, dated 1991).
Counter-ions that a name gives are not always drawn. Like-named read-outs stand apart in the source and are kept apart here.

Key:
mu receptor [1] = molecular target: T1, mu receptor (Rattus norvegicus, UniProt P33535); assay: Opioid receptor binding displacement assay, mu site (rat whole brain minus cerebellum, 3H ligand); parameters: species or system Male Sprague Dawley rats
T1 construct: rat whole brain minus cerebellum for mu and delta sites; from tissue; host or cells: rat whole brain minus cerebellum, frozen pellet fraction
Procedure: (§1) This assay was conducted by the following procedure.
(§2) Male Sprague Dawley rats for mu and delta site experiments and male Hartley guinea pigs for kappa site experiments were sacrificed via decapitation and the brains were removed. The brain tissue, rat whole brain minus cerebellum for mu and delta sites and guinea pig cortex for the kappa site, was homogenized in a Teflon and glass tissue homogenizer. A supernatant I, pellet IV, fraction was frozen in a nitrogen freezer at 1.33 g/ml concentration and stored for not longer than five weeks prior to use. Pellets were rehydrated with physiological buffer prior to use.
(§3) The reaction was initiated by the addition of the rehydrated tissue which has been preincubated at 37° C. for 20 minutes. The reaction mixture was incubated in a 37° C. water bath for 20 minutes. The reaction was terminated by rapid filtration, (Amicon vacuum manifolds), through Whatman GF/C glass filters that had been presoaked in Krebs-Hepes buffer pH 7.4. The filters were then washed 2× with 5 ml of ice cold Krebs-Hepes buffer pH 7.4. Washed filters were placed in scintillation vials and 10 ml PCS, (Amersham), was added and samples counted in a Searle D-300 beta counter. Means and standard error statistics were calculated for triplicate experimental determinations in certain cases. The procedure was slightly modified for the kappa site. The tissue was pretreated with 100 nM concentrations of mu and delta receptor site blockers. The incubation time for the reaction mixture was 45 minutes at 37° C.

kappa receptor [2] = molecular target: T2, kappa receptor (Cavia porcellus, UniProt P41144); assay: Opioid receptor binding displacement assay, kappa site (guinea pig cortex, 3H ligand); parameters: species or system male Hartley guinea pigs
T2 construct: guinea pig cortex for the kappa site; from tissue; host or cells: guinea pig cortex, frozen pellet fraction
Procedure: as §1, §2, §3

mu receptor [3] = molecular target: T3, mu receptor (Mus musculus, UniProt P42866); assay: Mouse writhing assay, antagonism of morphine analgesia (mu); format: in vivo, CF-1 male mice; conditions: sc, read-out: Mu AD50
T3 construct: Five CF-1 male mice (Charles River, Portage, Mich.); from tissue; host or cells: whole living CF-1 male mice (in vivo)

kappa receptor [4] = molecular target: T4, kappa receptor (Mus musculus, UniProt P33534); assay: in vivo; parameters: species or system CF-1 male mice; conditions: sc, read-out: Kappa AD50
T4 construct: Five CF-1 male mice (Charles River, Portage, Mich.); from tissue; host or cells: whole living CF-1 male mice (in vivo)

kappa receptors = molecular target: T5, kappa receptors (Rattus norvegicus, UniProt P34975); assay: Rat diuresis assay, antagonism of bremazocine-induced urination; format: in vivo, male Long-Evans hooded rats; conditions: sc, rats, s.c., urinary output reduced to 50% of effect of 0.08 mg/kg bremazocine alone
T5 construct: sixty male Long-Evans hooded rats; from tissue; host or cells: whole living male Long-Evans hooded rats (in vivo)
Procedure: As such, the compounds of the invention were also evaluated in a rat diuresis assay conducted according to the following procedure described by Leander et al. in Drug Development Research 4:421-427 (1984) in an effort to further establish the ability of the present compounds to block kappa receptors.
According to this procedure, sixty male Long-Evans hooded rats (Charles River Breeding Laboratories, Portage, Mich.) weighing between about 300 and 500 grams each were housed either individually or in pairs in a temperature-controlled (23° C.) colony room which was illuminated between 6:00 A.M. and 6:00 P.M. Rodent chow and tap water were continuously available except during the measurement of urine output. The animals were used repeatedly, but no more frequently than twice a week.
The animals were then injected with various doses of the test compounds. To measure urine output, the animals were removed from the home cages, weighed, injected and placed in metabolism cages for 5 hr. Excreted urine was funneled into graduated cylinders. Cumulative urine volumes were determined at designated time intervals, usually at 2 and 5 hr after injection.
The compounds which are salt forms were dissolved in distilled water. If necessary, the compounds were dissolved in distilled water with the aid of either a few drops of lactic acid or hydrochloric acid and gentle warming. All injections were s.c. in a volume of 1 ml/kg of body weight. During tests for antagonism, two injections were given, one on each side of the body.
In the Table, column 1 provides the Example Number of the compound tested; column 2, the amount of compound in mg/kg necessary to reduce the urinary output to 50% of the effect produced by 0.08 mg/kg of bremazocine alone two hours after injection of bremazocine and the test compound; and column 3, the amount of compound in mg/kg necessary to reduce the urinary output to 50% of the effect produced by 0.08 mg/kg of bremazocine alone five hours after injection of bremazocine and the test compound.

[5] = tested on: meal fed obese Zucker rats; assay: Food consumption assay in meal fed obese Zucker rats; format: in vivo; conditions: Rattus norvegicus, sc, 4 h, amount to decrease food consumption 20% during first four hours
Text: The following assay was employed to evaluate the ability of the compounds of the invention to effect food and water consumption of meal fed obese Zucker rats.
According to this procedure, 3-4 month old obese Zucker rats were trained to eat food daily from 8:00 A.M. to 4:00 P.M. only, such that the body weight gain approximates that if the rats were fed ad libitum. These rats were allowed to consume water at all times. Four groups of rats with four rats in each group, two female and two male, were formed. One group served as control for the other three groups each day. Each of the other groups were given a subcutaneous dose of the compound to be evaluated. The test compound was formulated in physiological saline containing 10% dimethylsulfoxide by volume.
Animals remained drug free for 4 days before the next test. Food and water consumption of each rat were measured for the first four hours. A test on one compound was run for three consecutive days. The drug effect was expressed as the percent of the control for that test day.
In the Table, column 1 gives the Example Number of the compound evaluated; and column 2 provides the ED20 in mg/kg, wherein ED20 represents the amount of compound evaluated in mg/kg necessary to decrease food consumption 20% during the first four hours of the experiment.

[6] = 2 h, two hours after injection, read-out: AD50 Two Hours
[7] = 5 h, five hours after injection, read-out: AD50 Five Hours

T5 sequence (P34975 whole entry): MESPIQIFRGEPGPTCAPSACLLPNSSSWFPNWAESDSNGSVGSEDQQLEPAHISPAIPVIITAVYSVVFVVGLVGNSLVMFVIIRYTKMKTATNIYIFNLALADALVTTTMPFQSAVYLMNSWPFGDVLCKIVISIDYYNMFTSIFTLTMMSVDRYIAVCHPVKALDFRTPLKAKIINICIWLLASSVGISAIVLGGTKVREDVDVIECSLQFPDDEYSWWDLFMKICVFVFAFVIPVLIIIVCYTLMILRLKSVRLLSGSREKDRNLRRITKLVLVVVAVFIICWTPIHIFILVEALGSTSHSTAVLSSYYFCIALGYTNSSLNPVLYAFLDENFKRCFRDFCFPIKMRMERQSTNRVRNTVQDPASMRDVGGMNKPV
T2 sequence (P41144 whole entry): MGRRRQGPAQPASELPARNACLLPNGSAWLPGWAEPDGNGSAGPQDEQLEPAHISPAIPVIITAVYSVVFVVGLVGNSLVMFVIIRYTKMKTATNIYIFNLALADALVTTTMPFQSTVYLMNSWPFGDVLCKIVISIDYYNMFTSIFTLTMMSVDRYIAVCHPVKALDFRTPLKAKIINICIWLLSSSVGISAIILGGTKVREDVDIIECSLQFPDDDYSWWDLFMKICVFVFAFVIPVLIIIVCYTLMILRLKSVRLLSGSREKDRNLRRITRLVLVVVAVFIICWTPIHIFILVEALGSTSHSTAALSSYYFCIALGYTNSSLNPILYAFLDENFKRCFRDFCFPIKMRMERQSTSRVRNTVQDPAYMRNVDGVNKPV
T1 sequence (P33535 whole entry): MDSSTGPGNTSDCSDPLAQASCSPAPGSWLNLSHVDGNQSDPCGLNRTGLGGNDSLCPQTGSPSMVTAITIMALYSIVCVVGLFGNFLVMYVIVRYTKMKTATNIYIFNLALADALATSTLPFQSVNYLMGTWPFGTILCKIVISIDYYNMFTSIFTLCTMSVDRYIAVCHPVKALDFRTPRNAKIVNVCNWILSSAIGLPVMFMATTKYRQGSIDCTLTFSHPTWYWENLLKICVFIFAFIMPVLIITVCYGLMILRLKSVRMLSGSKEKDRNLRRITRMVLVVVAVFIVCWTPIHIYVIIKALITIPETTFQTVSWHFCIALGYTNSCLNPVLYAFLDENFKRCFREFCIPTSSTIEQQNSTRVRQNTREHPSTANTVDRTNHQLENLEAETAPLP
T4 sequence (P33534 whole entry): as the sequence (P34975 whole entry) above, with E11D, A17S, P51S, V308A counted along it
T3 sequence (P42866 whole entry): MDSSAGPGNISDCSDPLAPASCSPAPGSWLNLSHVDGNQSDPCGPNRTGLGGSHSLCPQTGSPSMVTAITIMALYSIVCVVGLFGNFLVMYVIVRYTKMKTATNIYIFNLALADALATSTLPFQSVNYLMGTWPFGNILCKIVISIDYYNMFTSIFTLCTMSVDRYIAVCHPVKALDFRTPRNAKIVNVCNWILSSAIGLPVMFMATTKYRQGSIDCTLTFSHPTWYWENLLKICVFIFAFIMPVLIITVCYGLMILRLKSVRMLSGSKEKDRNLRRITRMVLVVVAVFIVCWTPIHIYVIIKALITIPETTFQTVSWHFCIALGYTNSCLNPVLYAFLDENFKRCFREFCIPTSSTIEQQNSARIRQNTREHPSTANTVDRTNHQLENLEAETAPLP

Compound | Ki (mu receptor [1]) [nM] | Ki (kappa receptor [2]) [nM] | ED50 (mu receptor [3]) [mg/kg] | ED50 (kappa receptor [4]) [mg/kg] | ED50 (kappa receptors; [6]) [mg/kg] | ED50 (kappa receptors; [7]) [mg/kg] | ED20 [5] [mg/kg] | Ki (mu receptor [1]; rat brain minus cerebellum, pH 7.4, 37° C., 20 minutes, read-out: Ki Mu) [nM] | Ki (kappa receptor [2]; guinea pig cortex, pH 7.4, 37° C., 45 minutes, mu and delta sites blocked (100 nM), read-out: Ki Kappa) [nM]
C=C(C)CCCN1CCC(C)(c2cccc(O)c2)C(C)C1 (stereo not drawn) [Example 3, trans-(±)-1-(4-Methyl-4-pentenyl)-3,4-dimethyl-4-(3-hydroxyphenyl)piperidine hydrochloride] | 2.95 ± 1.12 | 13.9 ± 6.66 | 0.08 | 0.29 | 0.27 | 0.39 | 0.29 |  | 
CC(C)CCCN1CCC(C)(c2cccc(O)c2)C(C)C1 (stereo not drawn) [Example 15, trans-(±)-1-(4-Methylpentyl)-3,4-dimethyl-4-(3-hydroxyphenyl)piperidine hydrochloride] | 1.25 ± 0.4 | 9.43 ± 1.67 | 0.11 | 0.09 | 0.27 | 0.39 | 3.65 |  | 
C[C@H]1CN(CC[C@H](O)C2CCCCC2)CC[C@@]1(C)c1cccc(O)c1 [Example 23, trans-(+)-1-[S-(3-Hydroxy-3-cyclohexylpropyl)]-3,4-dimethyl-4-(3-hydroxyphenyl)piperidine] |  |  | 0.01 | 0.07 | 0.4 | 0.38 | 0.05 | 0.41 ± 0.09 | 2.02 ± 0.46
